ChEMBL document CHEMBL1124755, “Role of hydrogen bonding in ligand interaction with the N-methyl-D-aspartate receptor ion channel” (J Med Chem, 1990)

What follows are molecules tested against Glutamate NMDA receptor (assay: Evaluated for its affinity to bind PCP N-methyl-D-aspartate (NMDA) glutamate receptor in rat brain membrane using [3H]MK-801 as radioligand).
Assay type: cell membranes

SMILES	IC50
C[C@]12Cc3ccccc3C[C@](C)(N1)c1ccccc12	0.03 µM
c1ccc2c(c1)C[C@@H]1N[C@H](C2)c2ccccc21	0.64 µM
C[C@]12N[C@H](Cc3ccccc31)Cc1ccccc12	0.14 µM
C[C@]12N[C@](C)(c3ccccc31)c1ccccc12	0.024 µM
CC12Cc3ccccc3[C@@H](N1)c1ccccc12 (mixture of isomers)	0.26 µM
CC1c2ccccc2C[C@H]2N[C@]1(C)c1ccccc12 (mixture of isomers)	0.59 µM
CC12Cc3ccccc3[C@H](Cc3ccccc31)N2 (mixture of isomers)	0.69 µM
C[C@]12Cc3ccccc3[C@@H]3[C@H](c4ccccc41)N32 (mixture of isomers)	> 100 µM
C[C@@]12Cc3ccccc3[C@@H](C=N1)c1ccccc12 (racemic)	> 100 µM
Cc1cccc2c1[C@H]1Cc3ccccc3[C@]2(C)N1 (racemic)	3 µM
C[C@@]12Cc3ccc(Cl)cc3C[C@@H](N1)c1ccccc12 (racemic)	0.19 µM
CCCC[C@@]12Cc3ccccc3C[C@@](C)(N1)c1ccccc12 (racemic)	3.6 µM
C[C@@]12Cc3ccc(O)cc3C[C@@H](N1)c1ccccc12 (racemic)	0.14 µM
COc1ccc2c(c1)C[C@H]1N[C@@](C)(C2)c2ccccc21 (racemic)	0.22 µM
C[C@@]12Cc3ccccc3C[C@@H](N1)c1cc(Br)ccc12 (racemic)	0.27 µM
Cc1ccc2c(c1)C[C@H]1N[C@]2(C)c2ccccc21 (racemic)	0.64 µM
C[C@]12Cc3ccccc3C[C@](O)(N1)c1ccccc12 (racemic)	0.104 µM
C[C@@]12Cc3ccccc3C[C@@H](N1)c1ccccc12 (racemic)	0.086 µM
CN1[C@@H]2Cc3ccccc3C[C@@]1(C)c1ccccc12 (racemic)	0.53 µM
C[C@@]12Cc3ccc(Br)cc3C[C@@H](N1)c1ccccc12 (racemic)	0.32 µM

SMILES	IC50
C[C@@]12Cc3ccccc3C[C@@H](N1)c1ccc(Br)cc12 (racemic)	0.14 µM
Cc1ccc2c(c1)[C@@]1(C)N[C@@H]2Cc2ccccc21 (racemic)	0.1 µM
C[C@@]12N[C@@H](c3ccccc31)[C@H](O)c1ccccc12 (racemic)	0.64 µM
C[C@]12N[C@](C)(Cc3ccccc31)c1ccccc12 (racemic)	0.035 µM
C[C@]12Cc3ccccc3C[C@H](c3ccccc31)N2Cc1ccccc1 (racemic)	23 µM
C[C@@]12Cc3ccccc3C[C@@H](N1)c1cc(Cl)ccc12 (racemic)	0.25 µM
CC[C@@]12Cc3ccccc3C[C@@H](N1)c1ccccc12 (racemic)	1.36 µM
C[C@]12N[C@H](Cc3ccccc31)c1c2ccc2ccccc12 (racemic)	2.3 µM
C[C@]12N[C@H](Cc3cc4ccccc4cc31)c1ccccc12 (racemic)	89 µM
CCN1[C@@H]2Cc3ccccc3C[C@@]1(C)c1ccccc12 (racemic)	2.51 µM
Cc1cccc2c1C[C@H]1N[C@]2(C)c2ccccc21 (racemic)	0.8 µM
C[C@]12Cc3ccccc3C[C@H](c3ccccc31)[N+]2(C)C (racemic)	7.1 µM
C[C@@]12Cc3ccccc3C[C@@H](N1)c1c(Cl)cccc12 (racemic)	1.37 µM
C[C@]12N[C@H](Cc3c1ccc1ccccc31)c1ccccc12 (racemic)	5.8 µM
Cc1ccc2c(c1)[C@]1(C)N[C@H](C2)c2ccccc21 (racemic)	0.032 µM
Cc1ccc2c(c1)[C@H]1Cc3ccccc3[C@]2(C)N1 (racemic)	0.44 µM
C[C@]12N[C@H](Cc3ccccc31)c1cc3ccccc3cc12 (racemic)	86 µM
C[C@@]12Cc3cc(Br)ccc3C[C@@H](N1)c1ccccc12 (racemic)	0.079 µM
C[C@@]12Cc3ccccc3C[C@@H](N1)c1ccccc12 (stereo in doubt; (+)-15)	0.104 µM
C[C@@]12Cc3ccccc3C[C@@H](N1)c1ccccc12 (stereo in doubt; (-)-15)	0.106 µM

These molecules were tested against Glutamate NMDA receptor (assay: Evaluated for its affinity to bind ion channel binding sites (phencyclidine or PCP receptor) on the N-methyl-D-aspartate glutamate receptor in rat brain membrane using [3H]MK-801 as radioligand).
Assay type: cell membranes

SMILES	IC50
C[C@@]12Cc3ccccc3C(CN1)[C@@H](O)c1ccccc12 (mixture of isomers)	8.1 µM
CC12Cc3ccccc3[C@@H](O)C(CN1)c1ccccc12 (mixture of isomers)	0.95 µM
C[C@@]12N[C@@](C)(c3ccccc31)C(O)c1ccccc12 (mixture of isomers; 13)	0.065 µM
C[C@@]12N[C@@](C)(c3ccccc31)C(O)c1ccccc12 (mixture of isomers; 14)	6.6 µM
